Source: patent US20050019746A1, “Apoptosis-related kinase/GPCRs” (EiRx Therapeutics Limited, priority 2003, published 2005)

Key:
Assay type in all cases: cell-based, human
HCT15 cells = test: 10-14 day Clonagenicity Assay (MTT), HCT15; settings: for percentage survival relative to the missense, n = 1: independent experiment n = 1, dilution point of maximum toxicity; for percentage survival relative to the missense, n = 2: independent experiment n = 2, dilution point of maximum toxicity
Method in brief: (§1)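 siRNA knockdown at 2 μg/ml (4 h transfection) in serially halved seed densities; cells grown 10-14 d at 37 °C, 5% CO2, then counted by MTT conversion. Values: mean % survival vs missense oligo at the dilution giving maximum toxicity.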

A549 cells = test: 10-14 day Clonagenicity Assay (MTT), A549; settings: for percentage survival relative to the missense, n = 1: independent experiment n = 1, dilution point of maximum toxicity; for percentage survival relative to the missense, n = 2: independent experiment n = 2, dilution point of maximum toxicity; for percentage survival relative to the missense, n = 3: independent experiment n = 3, dilution point of maximum toxicity
Method in brief: as §1

SKOV3 cells = test: 10-14 day Clonagenicity Assay (MTT), SKOV3; settings: for percentage survival relative to the missense, n = 1: independent experiment n = 1, dilution point of maximum toxicity; for percentage survival relative to the missense, n = 2: independent experiment n = 2, dilution point of maximum toxicity; for percentage survival relative to the missense, n = 3: independent experiment n = 3, dilution point of maximum toxicity
Method in brief: as §1

DU145 cells = test: 10-14 day Clonagenicity Assay (MTT), DU145; settings: for percentage survival relative to the missense, n = 1: independent experiment n = 1, dilution point of maximum toxicity; for percentage survival relative to the missense, n = 2: independent experiment n = 2, dilution point of maximum toxicity
Method in brief: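 Seeded at cell-line-optimised densities, 1:2 serial dilution over six columns; siRNA oligos transfected at 2 μg/ml for 4 h, media changed overnight and at 24 h, then grown 10-14 days at 37° C before MTT read-out. Value is mean % viability vs missense control at the maximum-toxicity dilution, 3 experiments.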

PC3 cells = test: 10-14 day Clonagenicity Assay (MTT), PC3; settings: for percentage survival relative to the missense, n = 1: independent experiment n = 1, dilution point of maximum toxicity; for percentage survival relative to the missense, n = 3: independent experiment n = 3, dilution point of maximum toxicity
Method in brief: as §1

A498 cells = test: 10-14 day Clonagenicity Assay (MTT), A498; settings: for percentage survival relative to the missense, n = 1: independent experiment n = 1, dilution point of maximum toxicity; for percentage survival relative to the missense, n = 3: independent experiment n = 3, dilution point of maximum toxicity
Method in brief: as §1

| Substance | percentage survival relative to the missense, n = 1 (HCT15 cells) | percentage survival relative to the missense, n = 2 (HCT15 cells) | percentage survival relative to the missense, n = 1 (A549 cells) | percentage survival relative to the missense, n = 2 (A549 cells) | percentage survival relative to the missense, n = 3 (A549 cells) | percentage survival relative to the missense, n = 1 (SKOV3 cells) | percentage survival relative to the missense, n = 2 (SKOV3 cells) | percentage survival relative to the missense, n = 3 (SKOV3 cells) | percentage survival relative to the missense, n = 1 (DU145 cells) | percentage survival relative to the missense, n = 2 (DU145 cells) | percentage survival relative to the missense, n = 1 (PC3 cells) | percentage survival relative to the missense, n = 2 (PC3 cells; independent experiment n = 2, dilution point of maximum toxicity) | percentage survival relative to the missense, n = 3 (PC3 cells) | percentage survival relative to the missense, n = 1 (A498 cells) | percentage survival relative to the missense, n = 3 (A498 cells) | percentage survival relative to the missense, n = 3 (DU145 cells; independent experiment n = 3, dilution point of maximum toxicity) |
| --- | --- | --- | --- | --- | --- | --- | --- | --- | --- | --- | --- | --- | --- | --- | --- | --- |
| siRNA ROCK: siRNA duplex, sense UACAUGCCUGGUGGAGAUCtt, antisense GAUCUCCACCAGGCAUGUAtt; same in Tables 9 and 11 (sense UACAUGCCUGGUGGAGAUCTT; antisense GAUCUCCACCAGGCAUGUATT; chemistry not given here) | 61.9% | 34.6% | 16.3% | 28.4% | 16.8% | 11.7% | 30.4% | 40.7% | 45.6% | 44.4% | 50.4% | 32.3% | 22.8% | 14.3% | 8.3% |  |
| siRNA Survivin: positive control siRNA, sense GAACUGGCCCUUCUUGGAGtt, antisense CUCCAAGAAGGGCCAGUUCtt (sense GAACUGGCCCUUCUUGGAGTT; antisense CUCCAAGAAGGGCCAGUUCTT; chemistry not given here) [reference compound] | 71.3% | 44.5% | 28.5% | 62.4% | 67.3% | 43.9% | 90.8% | 85.7% | 102% | 61.8% | 39.2% |  | 83.6% | 35.9% | 75.9% | 91% |
